Data taken from the supplement of paper PMC10307832.

Experiments:
Assay in all cases: relative viability (nuclei count vs DMSO), 5 days (fraction); higher = more cells survive
[1] = system: NCI-H322M
Outline: (§1)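 Relative viability equals treated-well nuclei counts divided by vehicle-well nuclei counts. Counts came from 4× images of lung cancer cell lines grown in 1536-well plates for 5 days after pin-tool dosing on the day after seeding. Dosing used one drug alone or a fixed anchor-drug dose plus five library-drug doses (not always all listed) in √10 steps, and values are medians of duplicate plates.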

[2] = system: SK-MES-1
Outline: as §1

[3] = system: NCI-H2085
Outline: as §1

[4] = system: NCI-H838
Outline: as §1

[5] = system: NCI-H1792
Outline: as §1

[6] = system: NCI-H2087
Outline: as §1

[7] = system: NCI-H1355
Outline: as §1

[8] = system: ABC-1
Outline: as §1

[9] = system: CAL-12T
Outline: as §1

[10] = system: LK-2
Outline: as §1

[11] = system: A-427
Outline: as §1

[12] = system: NCI-H1651
Outline: as §1

[13] = system: NCI-H2228
Outline: as §1

[14] = system: PC-3 [JPC-3]
Outline: as §1

[15] = system: NCI-H661
Outline: as §1

[16] = system: UMC-11
Outline: as §1

[17] = system: LCLC-97TM1
Outline: as §1

[18] = system: NCI-H358
Outline: as §1

[19] = system: NCI-H1395
Outline: as §1

[20] = system: NCI-H1915
Outline: as §1

[21] = system: H3255
Outline: as §1

[22] = system: PC-14
Outline: as §1

[23] = system: NCI-H1666
Outline: as §1

Compound: O=C(O)CCCCC(CCSCc1ccccc1)SCc1ccccc1 (stereo not drawn) [CPI-613] + COc1cccc2cc(-c3nc([C@H]4CC[C@H](C(=O)O)CC4)n4ncnc(N)c34)[nH]c12 [OSI-027] (partner 0.5 µM)
- relative viability ([1]; first compound 5 µM): 0.511
- relative viability ([1]; first compound 15.81 µM): 0.422
- relative viability ([1]; first compound 50 µM): 0.515
- relative viability ([1]; first compound 158.11 µM): 0.336
- relative viability ([1]; first compound 500 µM): 0.0015
- relative viability ([2]; first compound 5 µM): 0.592
- relative viability ([2]; first compound 15.81 µM): 0.526
- relative viability ([2]; first compound 50 µM): 0.465
- relative viability ([2]; first compound 158.11 µM): 0.12
- relative viability ([2]; first compound 500 µM): 0.0545
- relative viability ([3]; first compound 5 µM): 0.727
- relative viability ([3]; first compound 15.81 µM): 0.659
- relative viability ([3]; first compound 50 µM): 0.787
- relative viability ([3]; first compound 158.11 µM): 0.308
- relative viability ([3]; first compound 500 µM): 0.112
- relative viability ([4]; first compound 5 µM): 0.354
- relative viability ([4]; first compound 15.81 µM): 0.335
- relative viability ([4]; first compound 50 µM): 0.301
- relative viability ([4]; first compound 158.11 µM): 0.235
- relative viability ([4]; first compound 500 µM): 0.0809
- relative viability ([5]; first compound 5 µM): 0.653
- relative viability ([5]; first compound 15.81 µM): 0.65
- relative viability ([5]; first compound 50 µM): 0.693
- relative viability ([5]; first compound 158.11 µM): 0.666
- relative viability ([5]; first compound 500 µM): 0.614
- relative viability ([6]; first compound 5 µM): 0.501
- relative viability ([6]; first compound 15.81 µM): 0.462
- relative viability ([6]; first compound 50 µM): 0.471
- relative viability ([6]; first compound 158.11 µM): 0.195
- relative viability ([6]; first compound 500 µM): 0.0169
- relative viability ([7]; first compound 5 µM): 0.388
- relative viability ([7]; first compound 15.81 µM): 0.347
- relative viability ([7]; first compound 50 µM): 0.345
- relative viability ([7]; first compound 158.11 µM): 0.29
- relative viability ([7]; first compound 500 µM): 0.0712
- relative viability ([8]; first compound 5 µM): 0.404
- relative viability ([8]; first compound 15.81 µM): 0.443
- relative viability ([8]; first compound 50 µM): 0.49
- relative viability ([8]; first compound 158.11 µM): 0.175
- relative viability ([8]; first compound 500 µM): 0.167
- relative viability ([9]; first compound 5 µM): 0.739
- relative viability ([9]; first compound 15.81 µM): 0.515
- relative viability ([9]; first compound 50 µM): 0.593
- relative viability ([9]; first compound 158.11 µM): 0.0379
- relative viability ([9]; first compound 500 µM): 0.0106
- relative viability ([10]; first compound 5 µM): 0.189
- relative viability ([10]; first compound 15.81 µM): 0.19
- relative viability ([10]; first compound 50 µM): 0.18
- relative viability ([10]; first compound 158.11 µM): 0.161
- relative viability ([10]; first compound 500 µM): 0.128
- relative viability ([11]; first compound 5 µM): 0.416
- relative viability ([11]; first compound 15.81 µM): 0.423
- relative viability ([11]; first compound 50 µM): 0.387
- relative viability ([11]; first compound 158.11 µM): 0.348
- relative viability ([11]; first compound 500 µM): 0.154
- relative viability ([12]; first compound 5 µM): 0.66
- relative viability ([12]; first compound 15.81 µM): 0.79
- relative viability ([12]; first compound 50 µM): 0.616
- relative viability ([12]; first compound 158.11 µM): 0.333
- relative viability ([12]; first compound 500 µM): 0.0775
- relative viability ([13]; first compound 5 µM): 0.538
- relative viability ([13]; first compound 15.81 µM): 0.467
- relative viability ([13]; first compound 50 µM): 0.525
- relative viability ([13]; first compound 158.11 µM): 0.192
- relative viability ([13]; first compound 500 µM): 0.072
- relative viability ([14]; first compound 5 µM): 0.753
- relative viability ([14]; first compound 15.81 µM): 0.658
- relative viability ([14]; first compound 50 µM): 0.729
- relative viability ([14]; first compound 158.11 µM): 0.517
- relative viability ([14]; first compound 500 µM): 0.276
- relative viability ([15]; first compound 5 µM): 0.684
- relative viability ([15]; first compound 15.81 µM): 0.601
- relative viability ([15]; first compound 50 µM): 0.597
- relative viability ([15]; first compound 158.11 µM): 0.413
- relative viability ([15]; first compound 500 µM): 0.126
- relative viability ([16]; first compound 5 µM): 0.407
- relative viability ([16]; first compound 15.81 µM): 0.369
- relative viability ([16]; first compound 50 µM): 0.426
- relative viability ([16]; first compound 158.11 µM): 0.124
- relative viability ([16]; first compound 500 µM): 0.118
- relative viability ([17]; first compound 5 µM): 0.508
- relative viability ([17]; first compound 15.81 µM): 0.519
- relative viability ([17]; first compound 50 µM): 0.67
- relative viability ([17]; first compound 158.11 µM): 0.474
- relative viability ([17]; first compound 500 µM): 0.0503
- relative viability ([18]; first compound 15.81 µM): 0.655
- relative viability ([18]; first compound 50 µM): 0.639
- relative viability ([18]; first compound 158.11 µM): 0.303
- relative viability ([18]; first compound 500 µM): 0.0233
- relative viability ([19]; first compound 5 µM): 0.67
- relative viability ([19]; first compound 15.81 µM): 0.602
- relative viability ([19]; first compound 50 µM): 0.668
- relative viability ([19]; first compound 158.11 µM): 0.694
- relative viability ([19]; first compound 500 µM): 0.568
- relative viability ([20]; first compound 5 µM): 0.557
- relative viability ([20]; first compound 15.81 µM): 0.538
- relative viability ([20]; first compound 50 µM): 0.485
- relative viability ([20]; first compound 158.11 µM): 0.447
- relative viability ([20]; first compound 500 µM): 0.001
- relative viability ([21]; first compound 5 µM): 0.569
- relative viability ([21]; first compound 15.81 µM): 0.501
- relative viability ([21]; first compound 50 µM): 0.612
- relative viability ([21]; first compound 500 µM): 0.471
- relative viability ([22]; first compound 5 µM): 0.736
- relative viability ([22]; first compound 15.81 µM): 0.756
- relative viability ([22]; first compound 50 µM): 0.702
- relative viability ([22]; first compound 158.11 µM): 0.0567
- relative viability ([22]; first compound 500 µM): 0.0096
- relative viability ([23]; first compound 5 µM): 0.866
- relative viability ([23]; first compound 15.81 µM): 0.856
- relative viability ([23]; first compound 50 µM): 0.798
- relative viability ([23]; first compound 158.11 µM): 0.281
- relative viability ([23]; first compound 500 µM): 0.151
